The text below walks through data of ChEMBL document CHEMBL3352001, “2,4-Dialkyl-8,9,10,11-tetrahydrobenzo[g]pyrimido[4,5-c]isoquinoline-1,3,7,12(2H,4H)-tetraones as new leads against Mycobacterium tuberculosis” (Eur J Med Chem, 2014).

Each structure is given as a SMILES string. ≈ marks a conversion by molar mass, not a printed value.

Data set [1] in a line: Cytotoxicity against mouse J774A1 cells after 24 hrs by neutral red dye uptake assay. The class given is cell-based. Particulars: J774.A1, 24 h, read-out: I50.
The nature of data set [2]: Selectivity index, ratio of I50 for mouse J774A1 cells to GI50 for Mycobacterium tuberculosis H37Rv. The class given is toxicity, cell-based, J774.A1. Particulars: read-out: Selectivity Index.
Data set [3] concerns Mycobacterium tuberculosis. The experiment in a line: Antimycobacterial activity against Mycobacterium tuberculosis H37Rv infected in mouse J774A1 cells assessed as reduction in bacterial load inside the cell at 3.13 ug/mL treatment stated after 24 hrs of infection for 4 days by luminometry. In kind it is functional, J774.A1. Also noted: scale not given: the % may be the effect or the level left.

Data set [4] concerns Mycobacterium tuberculosis. Nature of the data set: Antimycobacterial activity against Mycobacterium tuberculosis H37Rv infected in mouse J774A1 cells assessed as reduction in bacterial load inside the cell at 6.25 ug/mL treatment stated after 24 hrs of infection for 4 days by luminometry. The class given is functional, J774.A1. Set-up: scale not given: the % may be the effect or the level left.

For data set [5], the system named is Salmonella typhimurium. The experiment in a line: Genotoxicity in Salmonella typhimurium T104 Genox (recN2-4) expressing lux operon assessed as S/N ratio at 0.1 to 10 ug/mL measured for 4 hrs with 5 mins interval by vitotox assay in presence of S9 fraction. In kind it is toxicity, organism-based. Particulars: salmonella enterica subsp. enterica serovar typhimurium, s9, 4 h.

Data set [6] has as its system Salmonella typhimurium. The experiment in a line: Genotoxicity in Salmonella typhimurium T104 Genox (recN2-4) expressing lux operon assessed as S/N ratio at 0.1 to 10 ug/mL measured for 4 hrs with 5 mins interval by vitotox assay. The class given is toxicity, organism-based. Particulars: salmonella enterica subsp. enterica serovar typhimurium.
The test system of data set [7] is Salmonella typhimurium. Nature of the data set: Genotoxicity in Salmonella typhimurium Cytox (pr1) expressing lux operon assessed as S/N ratio at 0.1 to 10 ug/mL measured for 4 hrs with 5 mins interval by vitotox assay in presence of S9 fraction. In kind it is toxicity, organism-based. Particulars: salmonella enterica subsp. enterica serovar typhimurium, s9, 4 h.

The subject of data set [8] is Salmonella typhimurium. Nature of the data set: Genotoxicity in Salmonella typhimurium Cytox (pr1) expressing lux operon assessed as S/N ratio at 0.1 to 10 ug/mL measured for 4 hrs with 5 mins interval by vitotox assay. In kind it is toxicity, organism-based. Particulars: salmonella enterica subsp. enterica serovar typhimurium.
The nature of data set [9]: Cytotoxicity against mouse J774A1 cells assessed as structural organization of DNA at 0.5 to 5 ug/mL after 24 hrs by Comet assay. The class given is cell-based. Particulars: j774.a1, 24 h.
Data set [10] relates to Mycobacterium tuberculosis. The experiment in a line: Antimycobacterial activity against Mycobacterium tuberculosis H37Rv infected in mouse J774A1 cells assessed as reduction in extracellular bacterial load at 3.13 ug/mL treatment stated after 24 hrs of infection for 4 days by luminometry. The class given is functional, J774.A1.
Data set [11] concerns Mycobacterium tuberculosis. The experiment in a line: Antimycobacterial activity against Mycobacterium tuberculosis H37Rv infected in mouse J774A1 cells assessed as reduction in bacillary replication at 6.25 ug/mL treatment stated after 24 hrs of infection for 4 days by luminometry. In kind it is functional, J774.A1.
For data set [12], the system named is Mycobacterium tuberculosis. Nature of the data set: Antimycobacterial activity against Mycobacterium tuberculosis H37Rv infected in mouse J774A1 cells assessed as reduction in bacillary replication at 12.5 ug/mL treatment stated after 24 hrs of infection for 4 days by luminometry. In kind it is functional, J774.A1.
Data set [13] has as its system Mycobacterium tuberculosis. The experiment in a line: Antimycobacterial activity against Mycobacterium tuberculosis H37Rv infected in mouse J774A1 cells assessed as reduction in bacillary replication at 3.13 ug/mL treatment stated after 24 hrs of infection for 4 days by luminometry. In kind it is functional, J774.A1.

For the compound `CCCCCCn1c(=O)c2c3c(cnc2n(CCCCCC)c1=O)C(=O)C1=C(C3=O)C2CCC1C2` (stereo not given), in [1], the IC50 turned out to be 12.1 µg/mL (≈ 25.3 µM). Further, the selectivity ratio in [2] turned out to be 9.9.
Taken in the same sequence, the figures for `CCCCCCn1c(=O)c2c3c(cnc2n(CCCCCC)c1=O)C(=O)C1=C(C3=O)C2CCC1CC2` were 13.7 µg/mL (≈ 27.9 µM) and 10.1.
`Cn1c(=O)c2c3c(cnc2n(C)c1=O)C(=O)C1=C(C3=O)C2CCC1CC2`: the IC50 in data set [1] amounted to 16.8 µg/mL (≈ 47.8 µM). Further, the selectivity ratio in [2] was found to be 5.94.
Taken in the same sequence, the figures for `CCCCCn1c(=O)c2c3c(cnc2n(CCCCC)c1=O)C(=O)C1=C(C3=O)C2CCC1CC2` were 16.4 µg/mL (≈ 35.3 µM) and 11.
Taken in the same sequence, the figures for `CCCCn1c(=O)c2c3c(cnc2n(CCCC)c1=O)C(=O)C1=C(C3=O)C2CCC1C2` (stereo not given) were 9.5 µg/mL (≈ 22.5 µM) and 6.51.
For the compound `CCCCCn1c(=O)c2c3c(cnc2n(CCCCC)c1=O)C(=O)C1=C(C3=O)C2CCC1C2` (stereo not given), the IC50 in data set [1] amounted to 13.4 µg/mL (≈ 29.7 µM). The selectivity ratio in data set [2] came out at 10.6.
`CCCn1c(=O)c2c3c(cnc2n(CCC)c1=O)C(=O)C1=C(C3=O)C2CCC1C2` (stereo not given): the IC50 in data set [1] was 18.7 µg/mL (≈ 47.5 µM). The selectivity ratio in [2] was determined as 18.7.
For the compound `CC(C)n1c(=O)c2c3c(cnc2n(C(C)C)c1=O)C(=O)C1=C(C3=O)C2CCC1C2` (stereo not given), in data set [1], the IC50 worked out at 9.71 µg/mL (≈ 24.7 µM). Besides, the selectivity ratio in [2] stood at 10.8. Moreover, the results for the Activity in [3], in data set [4] and in data set [9] were 57.72%, 98.03% and “Non-toxic”, respectively. For the same compound, the Ratio in the data set with Salmonella typhimurium [5] is recorded as 0.8; with Salmonella typhimurium [6] it was 0.8; in the data set on Salmonella typhimurium [7], less than 1.5; in the data set with Salmonella typhimurium [8], less than 1.5. Further, the “inhibition (INH)” value in [10] stood at 99%.
In the case of `CCn1c(=O)c2c3c(cnc2n(CC)c1=O)C(=O)C1=C(C3=O)C2CCC1C2` (stereo not given), the IC50 in data set [1] was found to be 18.2 µg/mL (≈ 49.9 µM). Also, in data set [2], the selectivity ratio is 10.8.
Take `CC(C)Cn1c(=O)c2c3c(cnc2n(CC(C)C)c1=O)C(=O)C1=C(C3=O)C2CCC1CC2`: in data set [1], the IC50 amounted to 20.4 µg/mL (≈ 46.9 µM). Further, the selectivity ratio in [2] came to 4.69.
Taken in the same sequence, the figures for `Cn1c(=O)c2c3c(cnc2n(C)c1=O)C(=O)C1=C(C3=O)C2CCC1C2` (stereo not given) were 15.4 µg/mL (≈ 45.5 µM) and 9.72.
On to `CC(C)Cn1c(=O)c2c3c(cnc2n(CC(C)C)c1=O)C(=O)C1=C(C3=O)C2CCC1C2` (stereo not given), for which, in data set [1], the IC50 came to 16.8 µg/mL (≈ 39.8 µM). The selectivity ratio in [2] stood at 8.06.
Taken in the same sequence, the figures for `CCCCn1c(=O)c2c3c(cnc2n(CCCC)c1=O)C(=O)C1=C(C3=O)C2CCC1CC2` were 9.87 µg/mL (≈ 22.7 µM) and 5.36.
Taken in the same sequence, the figures for `CC(C)CCn1c(=O)c2c3c(cnc2n(CCC(C)C)c1=O)C(=O)C1=C(C3=O)C2CCC1C2` (stereo not given) were 22.5 µg/mL (≈ 50 µM) and 9.32.
On to `CCCCCCCn1c(=O)c2c3c(cnc2n(CCCCCCC)c1=O)C(=O)C1=C(C3=O)C2CCC1CC2`, for which, in [1], the IC50 worked out at 32.8 µg/mL (≈ 63.1 µM). The selectivity ratio in data set [2] turned out to be 24.8. Also, the “inhibition (INH)” value in data set [11] is reported as 68.8%; in [12], 92%. Also, the Ratio in the data set with Salmonella typhimurium [5] is on record as 0.8; in the data set on Salmonella typhimurium [6], 0.8; with Salmonella typhimurium [7], less than 1.5; with Salmonella typhimurium [8], less than 1.5. The Activity result in data set [9] was “Non-toxic”.
Take `CCCCCCCn1c(=O)c2c3c(cnc2n(CCCCCCC)c1=O)C(=O)C1=C(C3=O)C2CCC1C2` (stereo not given): the IC50 in [1] turned out to be 26.5 µg/mL (≈ 52.3 µM). Moreover, in data set [2], the selectivity ratio came out at 42. Also, the “inhibition (INH)” value in data set [13] stood at 65.5%; in data set [11], 80.4%; in data set [12] it was 91.3%. Besides, the Ratio in the data set with Salmonella typhimurium [5] is given as 0.8; in the data set on Salmonella typhimurium [6], 0.8; in the data set on Salmonella typhimurium [7], less than 1.5; with Salmonella typhimurium [8], less than 1.5. Moreover, in data set [9], the Activity result was “Non-toxic”.
Turning to `CC(C)CCn1c(=O)c2c3c(cnc2n(CCC(C)C)c1=O)C(=O)C1=C(C3=O)C2CCC1CC2`, the IC50 in data set [1] amounted to 23.4 µg/mL (≈ 50.4 µM). The selectivity ratio in data set [2] is 4.77.
Turning to `CCCn1c(=O)c2c3c(cnc2n(CCC)c1=O)C(=O)C1=C(C3=O)C2CCC1CC2`, the IC50 in [1] came to 22 µg/mL (≈ 54 µM). Further, the selectivity ratio in data set [2] amounted to 8.5.
On to `CC(C)n1c(=O)c2c3c(cnc2n(C(C)C)c1=O)C(=O)C1=C(C3=O)C2CCC1CC2`, for which the IC50 in [1] was 11.8 µg/mL (≈ 28.9 µM). In data set [2], the selectivity ratio was found to be 16.1. The “inhibition (INH)” value was 58.7% in data set [13] and 82.3% in [11]. Besides, the Ratio is given as 0.8 with Salmonella typhimurium [5], 0.8 with Salmonella typhimurium [6], less than 1.5 in the data set on Salmonella typhimurium [7] and less than 1.5 in the data set on Salmonella typhimurium [8]. Besides, in data set [9], the Activity result was “Non-toxic”.
`CCn1c(=O)c2c3c(cnc2n(CC)c1=O)C(=O)C1=C(C3=O)C2CCC1CC2`: the IC50 in [1] is 19.9 µg/mL (≈ 52.4 µM). Also, the selectivity ratio in data set [2] came to 7.79.
